Data reported in PMC9939319 (Acta Pharmaceutica Sinica. B, 2022).

Target: TRPA1 (Homo sapiens, UniProt O75762)
Experiment: calcium flux in TRPA1-overexpressing HEK-293 cells
Assay type: cell-based

TRPA1, sequence (O75762 whole entry): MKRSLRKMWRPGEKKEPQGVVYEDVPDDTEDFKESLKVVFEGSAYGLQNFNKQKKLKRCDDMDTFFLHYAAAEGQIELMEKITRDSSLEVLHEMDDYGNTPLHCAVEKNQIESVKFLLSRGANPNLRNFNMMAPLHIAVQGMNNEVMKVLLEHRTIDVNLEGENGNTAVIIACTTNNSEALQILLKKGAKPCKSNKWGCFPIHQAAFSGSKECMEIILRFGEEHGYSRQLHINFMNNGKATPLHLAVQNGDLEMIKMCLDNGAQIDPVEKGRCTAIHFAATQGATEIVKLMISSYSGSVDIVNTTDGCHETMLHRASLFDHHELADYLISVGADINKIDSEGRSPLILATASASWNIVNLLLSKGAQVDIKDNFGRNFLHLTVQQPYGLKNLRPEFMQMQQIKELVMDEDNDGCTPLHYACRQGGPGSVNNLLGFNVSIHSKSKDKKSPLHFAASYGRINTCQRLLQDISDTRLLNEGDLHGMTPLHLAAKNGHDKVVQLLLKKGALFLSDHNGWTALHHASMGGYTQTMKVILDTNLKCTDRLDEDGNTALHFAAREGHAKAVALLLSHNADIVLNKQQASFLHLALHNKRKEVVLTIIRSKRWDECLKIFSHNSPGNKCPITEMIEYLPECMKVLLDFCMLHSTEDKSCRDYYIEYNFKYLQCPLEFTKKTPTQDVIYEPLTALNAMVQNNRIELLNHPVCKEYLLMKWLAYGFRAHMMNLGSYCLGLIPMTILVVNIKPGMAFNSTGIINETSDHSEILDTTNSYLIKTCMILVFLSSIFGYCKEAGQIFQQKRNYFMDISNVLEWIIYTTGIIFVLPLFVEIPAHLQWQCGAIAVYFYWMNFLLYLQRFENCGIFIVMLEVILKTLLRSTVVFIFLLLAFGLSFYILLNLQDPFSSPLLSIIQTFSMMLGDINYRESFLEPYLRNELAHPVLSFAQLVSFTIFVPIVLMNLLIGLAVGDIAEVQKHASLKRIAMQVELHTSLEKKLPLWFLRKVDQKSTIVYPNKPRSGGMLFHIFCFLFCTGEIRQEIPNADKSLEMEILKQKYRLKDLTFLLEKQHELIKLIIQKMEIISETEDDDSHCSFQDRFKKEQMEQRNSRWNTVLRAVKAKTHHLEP

- EC50: 225 µM
Compound: CC(C)(C)c1ccc(O)c(C(C)(C)C)c1 [2,4-DTBP]
